Test results published in ChEMBL document CHEMBL5715954, “Silencing c-Myc translation as a therapeutic strategy through targeting PI3Kδ and CK1ε in hematological malignancies” (Blood, 2017).

Columns and labels:
Set-up in all cases: scale not given: the % may be the effect or the level left
[1] = molecular target: T1, Dual specificity mitogen-activated protein kinase kinase 3 (Homo sapiens) (UniProt P46734); assay: Inhibition of human MEK3 assessed as enzyme activity at 1 uM using p38a (K53A) as substrate preincubated for 20 mins followed by [gamma-33P]-ATP addition and measured after 120 mins by radiometric Hot-SpotSM Kinase assay relative to control
T1 sequence (whole entry): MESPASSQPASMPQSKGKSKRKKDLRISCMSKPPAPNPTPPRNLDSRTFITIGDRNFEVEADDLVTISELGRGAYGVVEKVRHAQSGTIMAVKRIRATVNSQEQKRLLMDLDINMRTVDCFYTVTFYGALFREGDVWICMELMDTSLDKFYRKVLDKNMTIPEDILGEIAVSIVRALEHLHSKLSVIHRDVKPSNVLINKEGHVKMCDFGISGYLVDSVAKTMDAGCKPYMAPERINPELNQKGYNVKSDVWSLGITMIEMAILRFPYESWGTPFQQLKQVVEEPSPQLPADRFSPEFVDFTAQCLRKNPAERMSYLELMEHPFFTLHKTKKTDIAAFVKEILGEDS

[2] = molecular target: T2, Dual specificity tyrosine-phosphorylation-regulated kinase 4 (Homo sapiens) (UniProt Q9NR20); assay: Inhibition of human DYRK4 assessed as enzyme activity at 1 uM using RRRFRPASPLRGPPK as substrate preincubated for 20 mins followed by [gamma-33P]-ATP addition and measured after 120 mins by radiometric Hot-SpotSM Kinase assay relative to control
T2 sequence (whole entry): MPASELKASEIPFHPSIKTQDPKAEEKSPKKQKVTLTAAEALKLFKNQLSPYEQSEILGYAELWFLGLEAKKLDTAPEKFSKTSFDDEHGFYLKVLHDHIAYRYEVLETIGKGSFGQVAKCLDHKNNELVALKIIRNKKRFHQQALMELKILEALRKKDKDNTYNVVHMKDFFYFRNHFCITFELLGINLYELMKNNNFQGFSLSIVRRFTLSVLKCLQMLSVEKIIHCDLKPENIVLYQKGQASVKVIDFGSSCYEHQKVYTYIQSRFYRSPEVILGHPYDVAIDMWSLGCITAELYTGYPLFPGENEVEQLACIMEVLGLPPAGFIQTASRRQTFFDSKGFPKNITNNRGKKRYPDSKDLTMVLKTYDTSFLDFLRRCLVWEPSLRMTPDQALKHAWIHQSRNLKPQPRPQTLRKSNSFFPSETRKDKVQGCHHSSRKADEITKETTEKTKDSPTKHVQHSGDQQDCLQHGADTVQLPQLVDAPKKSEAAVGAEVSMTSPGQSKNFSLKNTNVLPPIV

[3] = molecular target: Serine/threonine-protein kinase pim-1 (Homo sapiens) (UniProt P11309); assay: Inhibition of human PIM1 assessed as enzyme activity at 1 uM using RSRHSSYPAGT as substrate preincubated for 20 mins followed by [gamma-33P]-ATP addition and measured after 120 mins by radiometric Hot-SpotSM Kinase assay relative to control
[4] = molecular target: T3, Serine/threonine-protein kinase STK11 (Homo sapiens) (UniProt Q15831); assay: Inhibition of human LKB1 assessed as enzyme activity at 1 uM using LSNLYHQGKFLQTFCGSPLYRRR as substrate preincubated for 20 mins followed by [gamma-33P]-ATP addition and measured after 120 mins by radiometric Hot-SpotSM Kinase assay relative to control
T3 sequence (whole entry): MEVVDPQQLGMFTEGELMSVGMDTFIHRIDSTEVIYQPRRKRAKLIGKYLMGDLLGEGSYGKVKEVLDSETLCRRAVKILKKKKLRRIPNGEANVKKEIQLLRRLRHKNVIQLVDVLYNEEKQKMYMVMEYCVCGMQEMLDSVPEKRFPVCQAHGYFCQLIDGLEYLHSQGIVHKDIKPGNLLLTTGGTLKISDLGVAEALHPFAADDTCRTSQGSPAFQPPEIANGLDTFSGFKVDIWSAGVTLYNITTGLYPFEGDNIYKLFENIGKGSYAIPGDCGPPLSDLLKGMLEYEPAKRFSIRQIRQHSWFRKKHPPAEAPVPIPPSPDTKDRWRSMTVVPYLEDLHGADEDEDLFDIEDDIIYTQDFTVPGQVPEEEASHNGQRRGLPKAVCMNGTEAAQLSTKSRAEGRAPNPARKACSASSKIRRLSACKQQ

[5] = molecular target: Casein kinase I isoform alpha (Homo sapiens) (UniProt P48729); assay: Inhibition of human CK1a1 assessed as enzyme activity at 1 uM using KRRRAL[pS]VASLPGL as substrate preincubated for 20 mins followed by [gamma-33P]-ATP addition and measured after 120 mins by radiometric Hot-SpotSM Kinase assay relative to control
[6] = molecular target: T4, Serine/threonine-protein kinase Nek8 (Homo sapiens) (UniProt Q86SG6); assay: Inhibition of human NEK8 assessed as enzyme activity at 1 uM using myelin basic protein as substrate preincubated for 20 mins followed by [gamma-33P]-ATP addition and measured after 120 mins by radiometric Hot-SpotSM Kinase assay relative to control
T4 sequence (whole entry): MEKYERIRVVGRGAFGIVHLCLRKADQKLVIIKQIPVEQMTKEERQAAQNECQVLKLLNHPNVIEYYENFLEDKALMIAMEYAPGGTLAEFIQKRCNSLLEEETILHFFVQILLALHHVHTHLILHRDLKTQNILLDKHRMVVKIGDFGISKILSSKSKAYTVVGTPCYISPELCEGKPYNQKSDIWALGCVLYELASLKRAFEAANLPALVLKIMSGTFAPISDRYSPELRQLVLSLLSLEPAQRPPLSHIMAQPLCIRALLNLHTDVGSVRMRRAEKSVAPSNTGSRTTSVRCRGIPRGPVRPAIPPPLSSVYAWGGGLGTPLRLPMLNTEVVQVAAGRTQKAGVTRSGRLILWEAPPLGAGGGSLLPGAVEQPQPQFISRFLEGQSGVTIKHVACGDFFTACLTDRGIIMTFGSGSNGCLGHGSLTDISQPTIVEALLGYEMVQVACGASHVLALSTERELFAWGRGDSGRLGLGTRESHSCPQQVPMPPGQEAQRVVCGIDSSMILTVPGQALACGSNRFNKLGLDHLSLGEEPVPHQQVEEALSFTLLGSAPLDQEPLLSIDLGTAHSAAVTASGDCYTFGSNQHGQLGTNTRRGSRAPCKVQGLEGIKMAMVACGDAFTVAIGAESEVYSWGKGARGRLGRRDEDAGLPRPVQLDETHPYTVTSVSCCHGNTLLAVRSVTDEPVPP

Sequence of Casein kinase I isoform alpha (Homo sapiens) (P48729 2-337 limits assumed): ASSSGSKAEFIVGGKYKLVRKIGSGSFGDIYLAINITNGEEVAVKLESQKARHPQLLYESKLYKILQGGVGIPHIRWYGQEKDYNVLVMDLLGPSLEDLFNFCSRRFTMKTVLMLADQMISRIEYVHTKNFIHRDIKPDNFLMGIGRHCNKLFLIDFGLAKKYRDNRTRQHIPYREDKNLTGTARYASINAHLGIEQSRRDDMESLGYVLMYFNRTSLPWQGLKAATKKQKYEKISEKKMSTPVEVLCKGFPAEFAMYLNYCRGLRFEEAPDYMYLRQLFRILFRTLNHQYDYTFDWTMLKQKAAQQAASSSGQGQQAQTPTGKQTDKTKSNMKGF
Sequence of Serine/threonine-protein kinase pim-1 (Homo sapiens) (P11309 whole entry, looked up): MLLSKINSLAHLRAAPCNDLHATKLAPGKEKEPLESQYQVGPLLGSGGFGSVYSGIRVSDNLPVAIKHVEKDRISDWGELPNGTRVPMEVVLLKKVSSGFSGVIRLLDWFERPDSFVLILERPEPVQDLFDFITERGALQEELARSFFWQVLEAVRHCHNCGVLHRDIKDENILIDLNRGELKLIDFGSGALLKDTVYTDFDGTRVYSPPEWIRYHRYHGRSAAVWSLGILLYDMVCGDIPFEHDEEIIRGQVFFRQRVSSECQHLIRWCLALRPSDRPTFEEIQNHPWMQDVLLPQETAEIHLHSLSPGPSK

SMILES	Activity [1] [%]	Activity [2] [%]	Activity [3] [%]	Activity [4] [%]	Activity [5] [%]	Activity [6] [%]
C[C@H](Nc1ncnc2nc[nH]c12)c1cc2cccc(Cl)c2c(=O)n1-c1ccccc1	108	97.1	99.6	93	111	95
CC[C@H](Nc1ncnc2[nH]cnc12)c1nc2cccc(F)c2c(=O)n1-c1ccccc1	108	100	99.6	104	107	94.3
CC(C)Oc1ccc(-c2nn([C@@H](C)c3oc4ccc(F)cc4c(=O)c3-c3cccc(F)c3)c3ncnc(N)c23)cc1F [UMBRALISIB]	105	98.8	98.2	100	111	91
